Source: patent US9169492B2, “Compositions and methods for enhanced parvovirus transduction” (priority 2011, dated 2015)
Peptide text beside a SMILES is read from it. * marks the point of attachment. Cbz = O=C(OCc1ccccc1)*

Assays:
[1] = test system: FVIII−/− mice; test: Canine FVIII activity (Coatest) in plasma of hemophilia A mice after portal vein AAV.cFVIII with or without proteasome inhibitor; format: in vivo, mouse; conditions: for week at which FVIII activity became detectable: AAV2.cFVIII vector, drug rows = co-administered with this vector (FIG. 2C); for enhanced factor VIII expression on average: hemophilia mice
Method: (§1) To avoid anticipated antibody-mediated immune responses to the canine FVIII transgene, all FVIII^−/− mice received cyclophosphamide (Sigma Aldrich, St Louis, Mo.) injected intraperitoneally in 3 doses of 100 μg each on days −3, 0, and +3, as previously described^5.
(§2) Canine FVIII activity in mouse plasma was measured by the Coatest SP4 kit (Chromogenix, DiPharma, West Chester, Ohio) following the manufacture's instruction with modification. Normal canine plasma (regarded as 100 percent activity=1 IU/ml) was serially diluted into FVIII^−/− pooled mouse plasma to generate the standard curve. Neutralizing antibodies to canine FVIII in mouse were measured by the Bethesda assay using a START 4 Coagulation Analyzer as described^42 (Diagnostica Stago, Asnières, France). Human factor IX was measured based on one-stage factor IX activity assay (FIX-specific aPTT) as previously described, using a START 4 Coagulation Analyzer (Diagnostica Stago, Asnières, France)^43.
Studies were carried out to analyze the effect of combination therapy using large transgene cassette FVIII in hemophilic A mice using the same genetic background (C57B1/6). […] Virus was characterized for total particle number by qPCR, virion integrity by electron microscopy, capsid ratio by silver stain, and DNA genome size by alkaline gel electrophoresis.

[2] = test system: FVIII−/− mice; test: Liver ALT, AST and complete blood counts in vector-treated hemophilia A mice; format: in vivo, mouse; conditions: mice receiving vector alone or in combination with bortezomib
From the text: In these mice, canine factor VIII peaked at 8 weeks, then began to decrease. […] Bortezomib co-administration improved initial and sustained canine factor VIII expression. […] To facilitate comparison of the proteasome inhibitor effect upon vectors generated from wtAAV-sized factor IX transgene and oversized factor VIII transgene, the same time points are graphed in FIGS. 2A and 2B (factor IX) and FIGS. 2C and 2D (factor VIII). Bortezomib treatment was associated with a proportionately greater augmentation of the oversize transgene expression than that of the smaller transgene.

[3] = test system: 293T cells; test: FACScan analysis of GFP expression in AAV2.GFP-transduced cells with or without bortezomib; format: cell-based; conditions: AAV2.GFP transduction and bortezomib co-administration
Method: 293T cells were grown in Dulbecco's modified Eagle's medium (Mediatech, Herndon, Va.) supplemented with 9% fetal bovine serum and 1% penicillin/streptomycin solution and transduced at a multiplicity of infection of 1. At 3-5 days after transduction, cells were harvested, fixed in phosphate-buffered saline (PBS) containing 2% formaldehyde/0.2% glutaraldehyde, and analyzed by FACScan as previously described^40.

[4] = test system: Factor VIII−/− mice; test: Expression from codon-optimized AAV8 factor VIII vector with or without bortezomib; format: in vivo, mouse; conditions: ssAAV8 3×10^10 vg/animal portal vein + bortezomib 0.5 mg/kg; persisted 12 weeks
Method: Factor VIII^−/− mice received 3×10^10 vg/animal single strand AAV serotype 8 vector encoding an oversized factor VIII transgene (n=5 mice per treatment group). The canine factor VIII cDNA sequence incorporated in the vector was engineered for optimal mammalian codon usage and GC nucleotide content. Mice received vector infusion to portal vein either alone or in combination with 0.5 mg/kg of proteasome inhibitor bortezomib (PI). While it has been established that codon-optimization increases expression from clotting factor VIII and IX vectors, it was not established whether PI could further augment the more efficient codon-optimized vectors.

[5] = preclinical toxicity data (ref 23); cited from earlier work
[6] = test system: hemophilia A dogs; test: Tolerability of vector and bortezomib in hemophilia A dogs; format: in vivo, dog; conditions: no liver transaminase elevations, neurologic symptoms or changes in hematologic parameters
Method: Using identical AAV cFVIII vector cassettes, studies were carried out to determine whether proteasome inhibitor augmentation of the expression of large transgenes translates to the canine hemophilia A model. […] Four hemophilia A pups received the same AAV therapy and received a single I.V. dose of the proteasome inhibitor bortezomib at FDA-approved dose of (1.3 mg/m^2). […] Specifically, no liver transaminase elevations, neurologic symptoms or changes in hematologic parameters were observed.

[7] = Bortezomib dose tolerability in mice without AAV vector; format: in vivo
Method: The primary objective of these studies was to validate in small and large animal “combination therapy” using FDA approved drug bortezomib and AAV transgene vectors. The present studies describe the use of the proteasome inhibitor, bortezomib (also known as Velcade®), as this is the only proteasome inhibitor currently approved for clinical use by the FDA. Bortezomib, like most chemotherapy is dosed based on body surface area. For all large animal studies, the FDA-approved dose of (1.3 mg/m^2) was used. However preclinical toxicity data has established a safe bortezomib dose for mice of 0.5 mg per kilogram of body weight^23. […] Even though the dosing in mice was calculated on a per kilogram body weight basis vs. clinically recommended body surface area, the total dose used in mice is roughly equivalent to total dose used in dog studies described herein.

[8] = test system: FIX−/− mice; test: Human factor IX activity (one-stage FIX-specific aPTT) in hemophilia B mice after portal vein AAV.hFIX with or without bortezomib; format: in vivo, mouse; conditions: 20 weeks
Method: as §1, §2
Studies were conducted to test the effect of combination therapy using bortezomib on in vivo correction of hemophilic animals. First, a vector carrying a genome approximately the same size as wild type AAV was used for the correction of hemophilia B in a mouse model. […]

[9] = bortezomib co-administered with AAV2 cFVIII vector

SMILES | week at which FVIII activity became detectable [1] [week] | FVIII expression increased on average vs vector alone ([1]; mouse, in vivo) [%] | effect on factor VIII expression ([1]; mouse, in vivo) | liver ALT, AST and complete blood counts [2] | percentage of cells expressing transgene [3] | expression of codon-optimized factor VIII [4] | safe bortezomib dose for mice [5] | factor VIII activity maintained for a year [1, 9] | peak factor VIII activity at week 8 [1, 9] [IU/ml] | persistence of enhanced expression without further proteasome inhibitor treatment ([1]; hemophilic mice) [year] | factor VIII expression higher on average vs AAV8.cFVIII vector alone ([1]; mouse, in vivo) [%] | enhanced factor VIII expression on average ([1]; single dose of bortezomib given with AAV2 factor VIII vector) [%] | enhanced factor VIII expression on average ([1]; single dose of bortezomib given with AAV8 factor VIII vector) [%] | tolerability [6] | tolerability ([7]; 0.5 mg/kg, without AAV vector) | tolerability ([7]; higher dose 1.0 mg/kg) | higher factor IX activity vs vector alone ([8]; bortezomib single dose co-administered with AAV8 factor IX vector) [%] | increase in factor IX expressed vs vector alone ([8]; bortezomib single dose with ssAAV2.FIX) [%]
CC(C)C[C@@H](C=O)NC(=O)[C@H](CC(C)C)NC(=O)[C@H](CC(C)C)NC(=O)OCc1ccccc1 [MG-132] (Cbz-Leu-Leu-Leu-aldehyde) | 2 | > 150 | slightly increased factor VIII expression was observed in the first month | – | – | – | – | – | – | – | – | – | – | – | – | – | – | –
CC(C)C[C@H](NC(=O)[C@H](Cc1ccccc1)NC(=O)c1cnccn1)B(O)O [bortezomib] | 1 | > 550 | – | did not show any evidence of hepatic or hematologic toxicity | increase | augmented expression | 0.5 mg per kilogram of body weight | more than 3% | 0.11±0.06 | > 1 | 259 | ~600 | ~300 | well tolerated | tolerated the proteasome inhibitors without apparent side effect or change in hematologic parameters | occasionally mice receiving this dose displayed decreased activity and feeding | ~24 | 83
